Columns and labels:
[1] = for speed of sound / kinematic viscosity / mass density: Liquid; for speed of sound: Sing-around technique in a fixed-path interferometer; for surface tension liquid-gas: Pendant drop shape; for kinematic viscosity: Capillary tube (Ostwald / Ubbelohde) method; for mass density: Vibrating tube method
[2] = xn = mol fraction of the nth substance listed; settings: for surface tension liquid-gas: Pendant drop shape; for viscosity / mass density: 101 kPa, Liquid; for viscosity: Concentric cylinders viscometry; for mass density: Vibrating tube method

CCCC[N+]1(C)CCCC1.O=S(=O)([N-]S(=O)(=O)C(F)(F)F)C(F)(F)F
[1], 101.33 kPa
Settings	kinematic viscosity [m2/s]	mass density [kg/m3]	speed of sound [m/s]
288.02 K	–	–	1293.9
288.15 K	8.9e-05	1403.37	–
293.01 K	–	–	1281.8
293.15 K	6.96e-05	1398.92	–
298.01 K	–	–	1270
298.15 K	5.57e-05	1394.49	–
303.15 K	4.52e-05	1390.09	–
303.2 K	–	–	1258
308.14 K	–	–	1246.8
308.15 K	3.69e-05	1385.66	–
313.15 K	3.06e-05	1381.29	1235.7
318.12 K	–	–	1224.7
318.15 K	2.55e-05	1376.92	–
323.13 K	–	–	1213.8
323.15 K	2.15e-05	1372.54	–

[1]
Settings	surface tension liquid-gas [mN/m]
288.15 K	33.71
293.15 K	33.44
298.15 K	33.22
303.15 K	33.02
308.15 K	32.82
313.15 K	32.6
318.15 K	32.35
323.15 K	32.15

CCCC[N+]1(C)CCCC1.O=S(=O)([N-]S(=O)(=O)C(F)(F)F)C(F)(F)F + CC#N
[2]
Settings	mass density, 288.15 K [kg/m3]	mass density, 298.15 K [kg/m3]	mass density, 308.15 K [kg/m3]	surface tension liquid-gas, 288.15 K [mN/m]	surface tension liquid-gas, 298.15 K [mN/m]	surface tension liquid-gas, 308.15 K [mN/m]	viscosity, 288.15 K [mPa·s]	viscosity, 298.15 K [mPa·s]	viscosity, 308.15 K [mPa·s]
x1 = 0.053	941.8	931.2	920.5	30.92	29.78	28.55	–	–	–
x1 = 0.1924	–	–	–	–	–	–	2.41	2.02	1.73
x1 = 0.1989	1156.4	1146.2	1136.2	32.45	31.45	30.57	–	–	–
x1 = 0.3593	1263.1	1253.5	1243.9	33.18	32.48	31.76	–	–	–
x1 = 0.4602	–	–	–	–	–	–	13.16	9.79	7.56
x1 = 0.5201	1322.1	1312.7	1303.4	33.45	32.84	32.2	–	–	–
x1 = 0.598	–	–	–	–	–	–	26.33	18.47	13.58
x1 = 0.6103	1344.7	1335.5	1326.4	33.51	32.97	32.44	–	–	–
x1 = 0.788	1377.3	1368.3	1359.2	33.58	33.13	32.68	–	–	–
x1 = 0.8159	–	–	–	–	–	–	65.88	42.55	29.18
x1 = 0.9394	1396.6	1387.8	1379	33.71	33.2	32.72	–	–	–
x1 = 1	1403.4	1394.5	1385.7	33.71	33.22	32.82	–	–	–

CC#N [acetonitrile] + CCCC[N+]1(C)CCCC1.O=S(=O)([N-]S(=O)(=O)C(F)(F)F)C(F)(F)F
[2], x2 = 0
Settings	mass density [kg/m3]	surface tension liquid-gas [mN/m]
288.15 K	787.2	29.53
298.15 K	776.5	28.34
308.15 K	765.7	27.15

CO [methanol]
[1]
Settings	surface tension liquid-gas [mN/m]
288.15 K	22.88
298.15 K	22
308.15 K	21.01

[1], 101 kPa
Settings	mass density [kg/m3]
288.15 K	795.8
298.15 K	786.45
308.15 K	777

CO [methanol] + CCCC[N+]1(C)CCCC1.O=S(=O)([N-]S(=O)(=O)C(F)(F)F)C(F)(F)F
[2], x2 = 0
Settings	mass density [kg/m3]	surface tension liquid-gas [mN/m]
288.15 K	795.8	22.88
298.15 K	786.4	22
308.15 K	777	21.01

CCCC[N+]1(C)CCCC1.O=S(=O)([N-]S(=O)(=O)C(F)(F)F)C(F)(F)F + CO
[2]
Settings	mass density, 288.15 K [kg/m3]	mass density, 298.15 K [kg/m3]	mass density, 308.15 K [kg/m3]	surface tension liquid-gas, 288.15 K [mN/m]	surface tension liquid-gas, 298.15 K [mN/m]	surface tension liquid-gas, 308.15 K [mN/m]	viscosity, 288.15 K [mPa·s]	viscosity, 298.15 K [mPa·s]	viscosity, 308.15 K [mPa·s]
x1 = 0.0495	970.4	960.7	951.1	24.36	23.54	22.73	–	–	–
x1 = 0.1886	1186.4	1176.8	1167.3	26.9	26.36	25.86	–	–	–
x1 = 0.2054	–	–	–	–	–	–	5.04	3.91	3.11
x1 = 0.3407	1281.7	1272.3	1263	29.25	28.95	28.63	–	–	–
x1 = 0.4365	–	–	–	–	–	–	17.5	12.51	9.35
x1 = 0.4932	1332.2	1323	1313.8	31.03	30.85	30.54	–	–	–
x1 = 0.5394	–	–	–	–	–	–	26.71	18.54	13.51
x1 = 0.6076	1356.2	1347	1338	32.08	31.67	31.36	–	–	–
x1 = 0.637	1361.2	1352.1	1343	32.25	31.94	31.65	–	–	–
x1 = 0.7067	–	–	–	–	–	–	49.43	32.82	23.02
x1 = 0.801	1384	1375	1366.1	33.23	32.77	32.33	–	–	–
x1 = 0.8363	1388.1	1379.1	1370.3	–	–	–	–	–	–
x1 = 0.9135	1395.6	1386.7	1377.9	33.57	33.1	32.65	–	–	–
x1 = 1	1403.4	1394.5	1385.7	33.71	33.22	32.82	–	–	–

CCC[N+]1(C)CCCC1.O=S(=O)([N-]S(=O)(=O)C(F)(F)F)C(F)(F)F
[1], 101.33 kPa
Settings	kinematic viscosity [m2/s]	mass density [kg/m3]	speed of sound [m/s]
288.01 K	–	–	1294.4
288.15 K	6.82e-05	1436.86	–
293.01 K	–	–	1282.8
293.15 K	5.33e-05	1432.36	–
297.99 K	–	–	1271.3
298.15 K	4.26e-05	1427.83	–
303.15 K	3.48e-05	1423.32	–
303.24 K	–	–	1259.5
308.15 K	2.88e-05	1418.81	–
308.21 K	–	–	1248.6
313.15 K	2.42e-05	1414.3	–
313.2 K	–	–	1237.6
318.15 K	2.06e-05	1409.86	–
318.16 K	–	–	1226.9
323.15 K	1.76e-05	1405.41	–
323.21 K	–	–	1216.2

[1]
Settings	surface tension liquid-gas [mN/m]
288.15 K	35.04
293.15 K	34.87
298.15 K	34.61
303.15 K	34.37
308.15 K	34.14
313.15 K	33.94
318.15 K	33.72
323.15 K	33.48

CC#N [acetonitrile]
[1]
Settings	surface tension liquid-gas [mN/m]
288.15 K	29.53
298.15 K	28.34
308.15 K	27.15

[1], 101 kPa
Settings	mass density [kg/m3]
288.15 K	787.2
298.15 K	776.53
308.15 K	765.7

Reference: the NIST ThermoML archive (doi:10.1016/j.jct.2013.12.009)
